Results: article PMC8206213, “An L-2-hydroxyglutarate biosensor based on specific transcriptional regulator LhgR” (Nature Communications, 2021)
Values joined by “and” are separate entries in the source; they are usually repeats but may differ in a detail not shown here. Identical values can stand only once.

Test: Dose-response of purified LHGFR for D-2-HG in buffer
Format: binding
Description: Purified L-2-HG biosensors and different compounds were diluted by 50 mM Tris-HCl buffer (pH 7.4), mixed together in a black 96-well plate at a volume ratio of 3:1, and the fluorescence intensities were measured using an EnSight microplate reader (PerkinElmer, USA) with excitation at 430 nm, emission at 485 nm (mTFP) and 528 nm (Venus). The dose-response curves were fitted by OriginPro 2016 software (OriginLab) according to the following formula:1 R=Rmax+Rmin−Rmax/1+([L-2-HG]/Kd)^p where R, Rmin, and Rmax refer to the emission ratio of Venus to mTFP, ratio in the absence of L-2-HG, and ratio at saturation with L-2-HG, respectively. The [L-2-HG], Kd, and p refer to the L-2-HG concentration, apparent dissociation constant, and Hill slope, respectively. Emission spectra were recorded at 430 nm excitation, in steps of 2 nm. Excitation spectra were recorded using emission at 550 nm, excitation from 380 to 535 nm in steps of 2 nm.

Structure (SMILES): O=C(O)CC[C@@H](O)C(=O)O [D-2-HG]
- Emission ratio of 528/485 (2-HG concentration 0.01, Suppl. Fig. 9c): 1.387 and 1.378 and 1.399
- Emission ratio of 528/485 (2-HG concentration 0.01, Suppl. Fig. 9d): 1.657 and 1.673 and 1.678
- Emission ratio of 528/485 (2-HG concentration 0.1, Suppl. Fig. 9c): 1.372 and 1.375 and 1.382
- Emission ratio of 528/485 (2-HG concentration 0.1, Suppl. Fig. 9d): 1.659 and 1.671 and 1.687
- Emission ratio of 528/485 (2-HG concentration 0.2, Suppl. Fig. 9c): 1.374 and 1.387 and 1.391
- Emission ratio of 528/485 (2-HG concentration 0.2, Suppl. Fig. 9d): 1.6456 and 1.673 and 1.682
- Emission ratio of 528/485 (2-HG concentration 1, Suppl. Fig. 9c): 1.374 and 1.373 and 1.392
- Emission ratio of 528/485 (2-HG concentration 1, Suppl. Fig. 9d): 1.662 and 1.681 and 1.683
- Emission ratio of 528/485 (2-HG concentration 2, Suppl. Fig. 9c): 1.367 and 1.388 and 1.39
- Emission ratio of 528/485 (2-HG concentration 2, Suppl. Fig. 9d): 1.647 and 1.673 and 1.676
- Emission ratio of 528/485 (2-HG concentration 10, Suppl. Fig. 9c): 1.374 and 1.398 and 1.395
- Emission ratio of 528/485 (2-HG concentration 10, Suppl. Fig. 9d): 1.662 and 1.69 and 1.707
- Emission ratio of 528/485 (2-HG concentration 20, Suppl. Fig. 9c): 1.362 and 1.378 and 1.389
- Emission ratio of 528/485 (2-HG concentration 20, Suppl. Fig. 9d): 1.665 and 1.705 and 1.723
- Emission ratio of 528/485 (2-HG concentration 100, Suppl. Fig. 9c): 1.381 and 1.406 and 1.415
- Emission ratio of 528/485 (2-HG concentration 100, Suppl. Fig. 9d): 1.815 and 1.829 and 1.846
- Emission ratio of 528/485 (2-HG concentration 200, Suppl. Fig. 9c): 1.404 and 1.432 and 1.433
- Emission ratio of 528/485 (2-HG concentration 200, Suppl. Fig. 9d): 1.932 and 1.978 and 1.981
- Emission ratio of 528/485 (2-HG concentration 1000, Suppl. Fig. 9c): 1.525 and 1.561 and 1.565
- Emission ratio of 528/485 (2-HG concentration 1000, Suppl. Fig. 9d): 2.255 and 2.2953 and 2.327
- Emission ratio of 528/485 (2-HG concentration 2000, Suppl. Fig. 9c): 1.698 and 1.693 and 1.687
- Emission ratio of 528/485 (2-HG concentration 2000, Suppl. Fig. 9d): 2.559 and 2.546 and 2.55
